What was measured:
Experiment in all cases: KINOMEscan competition binding
Conditions in all cases: compound 10.0 µM
YSK4 (human) = YSK4 (human) (UniProt Q56UN5)
HIPK3 (human) = HIPK3 (human) (UniProt Q9H422)
PIK3CG (human) = PIK3CG (human) (UniProt P48736)
TAOK2 (human) = TAOK2 (human) (UniProt Q9UL54)
GRK1 (human) = GRK1 (human) (UniProt Q15835)
STK32A (human) = STK32A (human) (UniProt Q8WU08)
LRRK2 (human) = LRRK2 (human) (UniProt Q5S007)
MATK (human) = MATK (human) (UniProt P42679)
IRAK1 (human) = IRAK1 (human) (UniProt P51617)
PIK3C2G (human) = PIK3C2G (human) (UniProt O75747)
STK38 (human) = STK38 (human) (UniProt Q15208)
[1] = tested on: FLT3 (human), P36888 [K663Q]
CSNK1A1 (human) = CSNK1A1 (human) (UniProt P48729)
KIT (human) = KIT (human) (UniProt P10721)
[2] = tested on: ABL1 (human), P00519 [E255K]
EIF2AK1 (human) = EIF2AK1 (human) (UniProt Q9BQI3)
ROCK1 (human) = ROCK1 (human) (UniProt Q13464)
[3] = tested on: EGFR (human), P00533 [P753S; 747-752 del]
MAP2K7 (human) = MAP2K7 (human) (UniProt O14733)
MAP3K13 (human) = MAP3K13 (human) (UniProt O43283)
NEK11 (human) = NEK11 (human) (UniProt Q8NG66)
PKN3 (M.tuberculosis) = PKN3 (M.tuberculosis) (UniProt Q6P5Z2)
NEK3 (human) = NEK3 (human) (UniProt P51956)
CDK4 CCND3 (human) = CDK4 CCND3 (human) (UniProt P11802+P30281)
GRK4 (human) = GRK4 (human) (UniProt P32298)
NEK4 (human) = NEK4 (human) (UniProt P51957)
Sequence of NEK4 (human) (P51957 whole entry, looked up): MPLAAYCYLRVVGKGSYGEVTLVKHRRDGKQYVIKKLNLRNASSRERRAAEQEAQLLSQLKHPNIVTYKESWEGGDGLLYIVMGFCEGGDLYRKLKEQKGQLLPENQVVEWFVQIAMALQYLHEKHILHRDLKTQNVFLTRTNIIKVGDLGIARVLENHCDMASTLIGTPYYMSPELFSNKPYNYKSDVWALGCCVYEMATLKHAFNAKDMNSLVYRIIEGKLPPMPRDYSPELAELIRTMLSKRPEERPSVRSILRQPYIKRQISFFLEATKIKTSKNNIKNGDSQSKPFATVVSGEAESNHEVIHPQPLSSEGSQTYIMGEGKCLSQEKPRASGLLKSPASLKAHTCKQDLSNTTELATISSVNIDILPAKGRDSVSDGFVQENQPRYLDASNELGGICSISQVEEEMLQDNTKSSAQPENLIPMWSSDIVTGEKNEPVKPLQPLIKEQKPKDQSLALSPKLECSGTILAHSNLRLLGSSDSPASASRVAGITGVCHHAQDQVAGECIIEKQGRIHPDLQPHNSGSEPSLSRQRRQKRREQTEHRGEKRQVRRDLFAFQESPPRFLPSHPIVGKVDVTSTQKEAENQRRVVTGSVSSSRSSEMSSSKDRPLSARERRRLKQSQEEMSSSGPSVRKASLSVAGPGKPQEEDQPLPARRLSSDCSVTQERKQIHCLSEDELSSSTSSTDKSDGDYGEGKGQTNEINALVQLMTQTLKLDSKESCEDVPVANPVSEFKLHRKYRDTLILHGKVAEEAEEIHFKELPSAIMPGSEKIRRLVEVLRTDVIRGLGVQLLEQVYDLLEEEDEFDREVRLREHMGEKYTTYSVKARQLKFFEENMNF

MAP3K2 (human) = MAP3K2 (human) (UniProt Q9Y2U5)
STK39 (human) = STK39 (human) (UniProt Q9UEW8)
ICK (human) = ICK (human) (UniProt Q9UPZ9)
Sequence of ICK (human) (Q9UPZ9 whole entry, looked up): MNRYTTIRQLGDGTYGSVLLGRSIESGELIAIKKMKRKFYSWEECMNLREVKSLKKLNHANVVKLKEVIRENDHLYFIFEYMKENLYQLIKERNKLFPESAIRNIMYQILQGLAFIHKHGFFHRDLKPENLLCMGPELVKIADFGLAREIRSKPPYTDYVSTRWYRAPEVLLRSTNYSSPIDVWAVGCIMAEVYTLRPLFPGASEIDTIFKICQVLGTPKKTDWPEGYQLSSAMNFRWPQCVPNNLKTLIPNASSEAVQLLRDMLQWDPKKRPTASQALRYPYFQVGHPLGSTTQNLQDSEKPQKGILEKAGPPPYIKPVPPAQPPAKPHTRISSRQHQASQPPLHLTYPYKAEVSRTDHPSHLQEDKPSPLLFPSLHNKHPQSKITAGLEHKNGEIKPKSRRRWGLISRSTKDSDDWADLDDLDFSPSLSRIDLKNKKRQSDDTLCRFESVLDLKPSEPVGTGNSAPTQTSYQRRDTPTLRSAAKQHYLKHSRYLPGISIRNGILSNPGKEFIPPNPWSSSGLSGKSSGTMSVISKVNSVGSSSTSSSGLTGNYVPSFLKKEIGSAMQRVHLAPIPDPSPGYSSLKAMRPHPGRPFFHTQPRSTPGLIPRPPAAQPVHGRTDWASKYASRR

TRPM6 (human) = TRPM6 (human) (UniProt Q9BX84)
ERBB3 (human) = ERBB3 (human) (UniProt P21860)
EGFR (human) = EGFR (human) (UniProt P00533)
CRK2 (P.falciparum) = CRK2 (P.falciparum) (UniProt P61075)
OXSR1 (human) = OXSR1 (human) (UniProt O95747)
Sequence of OXSR1 (human) (O95747 whole entry, looked up): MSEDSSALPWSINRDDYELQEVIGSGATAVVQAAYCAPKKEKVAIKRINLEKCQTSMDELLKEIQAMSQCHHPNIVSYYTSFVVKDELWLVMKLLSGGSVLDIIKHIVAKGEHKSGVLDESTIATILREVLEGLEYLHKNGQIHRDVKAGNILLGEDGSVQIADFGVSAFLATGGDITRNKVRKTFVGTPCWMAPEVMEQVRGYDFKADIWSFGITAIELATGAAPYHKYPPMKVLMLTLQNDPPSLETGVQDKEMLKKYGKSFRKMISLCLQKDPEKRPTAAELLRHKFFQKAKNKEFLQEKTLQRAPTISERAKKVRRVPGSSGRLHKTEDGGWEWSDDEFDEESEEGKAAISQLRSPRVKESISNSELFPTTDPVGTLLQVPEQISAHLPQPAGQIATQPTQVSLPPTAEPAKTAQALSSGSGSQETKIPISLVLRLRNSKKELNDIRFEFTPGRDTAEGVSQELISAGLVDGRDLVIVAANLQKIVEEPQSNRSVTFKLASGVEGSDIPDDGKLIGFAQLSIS

DYRK2 (human) = DYRK2 (human) (UniProt Q92630)
DYRK1A (human) = DYRK1A (human) (UniProt Q13627)
MAK (human) = MAK (human) (UniProt P20794)
Sequence of MAK (human) (P20794 whole entry, looked up): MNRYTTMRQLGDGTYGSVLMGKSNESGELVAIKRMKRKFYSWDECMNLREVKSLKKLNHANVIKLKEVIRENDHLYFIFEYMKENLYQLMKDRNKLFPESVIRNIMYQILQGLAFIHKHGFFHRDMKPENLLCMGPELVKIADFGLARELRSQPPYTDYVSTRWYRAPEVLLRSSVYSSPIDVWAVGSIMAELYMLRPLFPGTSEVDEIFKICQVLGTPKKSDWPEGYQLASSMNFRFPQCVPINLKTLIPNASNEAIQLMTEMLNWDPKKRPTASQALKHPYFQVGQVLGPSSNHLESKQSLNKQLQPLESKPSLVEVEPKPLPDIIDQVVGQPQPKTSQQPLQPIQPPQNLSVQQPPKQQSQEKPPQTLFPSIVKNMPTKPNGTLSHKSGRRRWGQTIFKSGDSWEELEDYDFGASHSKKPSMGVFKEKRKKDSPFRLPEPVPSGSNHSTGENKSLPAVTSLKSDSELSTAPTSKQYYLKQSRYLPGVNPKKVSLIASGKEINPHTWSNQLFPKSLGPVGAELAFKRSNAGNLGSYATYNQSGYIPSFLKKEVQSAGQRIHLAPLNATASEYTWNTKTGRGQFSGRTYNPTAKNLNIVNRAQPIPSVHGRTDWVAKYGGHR

HIPK4 (human) = HIPK4 (human) (UniProt Q8NE63)
CDK4 CCND1 (human) = CDK4 CCND1 (human) (UniProt P11802+P24385)
MAST1 (human) = MAST1 (human) (UniProt Q9Y2H9)

Sequence of GRK1 (human) (Q15835 whole entry, looked up): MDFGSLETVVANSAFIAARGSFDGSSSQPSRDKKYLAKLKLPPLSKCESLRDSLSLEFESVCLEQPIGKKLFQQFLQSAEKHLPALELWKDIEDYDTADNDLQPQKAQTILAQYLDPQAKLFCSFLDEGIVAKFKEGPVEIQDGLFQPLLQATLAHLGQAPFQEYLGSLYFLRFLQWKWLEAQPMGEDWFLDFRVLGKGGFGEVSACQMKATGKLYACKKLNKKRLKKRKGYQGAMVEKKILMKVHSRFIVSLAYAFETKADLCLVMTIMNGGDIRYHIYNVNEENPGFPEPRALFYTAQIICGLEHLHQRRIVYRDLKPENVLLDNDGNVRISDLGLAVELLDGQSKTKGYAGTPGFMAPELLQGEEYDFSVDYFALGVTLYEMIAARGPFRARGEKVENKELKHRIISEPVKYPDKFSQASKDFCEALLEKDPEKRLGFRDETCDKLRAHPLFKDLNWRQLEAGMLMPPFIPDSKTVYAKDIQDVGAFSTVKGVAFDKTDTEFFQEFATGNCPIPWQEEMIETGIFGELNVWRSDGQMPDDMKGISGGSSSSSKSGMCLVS
Sequence of YSK4 (human) (Q56UN5 whole entry, looked up): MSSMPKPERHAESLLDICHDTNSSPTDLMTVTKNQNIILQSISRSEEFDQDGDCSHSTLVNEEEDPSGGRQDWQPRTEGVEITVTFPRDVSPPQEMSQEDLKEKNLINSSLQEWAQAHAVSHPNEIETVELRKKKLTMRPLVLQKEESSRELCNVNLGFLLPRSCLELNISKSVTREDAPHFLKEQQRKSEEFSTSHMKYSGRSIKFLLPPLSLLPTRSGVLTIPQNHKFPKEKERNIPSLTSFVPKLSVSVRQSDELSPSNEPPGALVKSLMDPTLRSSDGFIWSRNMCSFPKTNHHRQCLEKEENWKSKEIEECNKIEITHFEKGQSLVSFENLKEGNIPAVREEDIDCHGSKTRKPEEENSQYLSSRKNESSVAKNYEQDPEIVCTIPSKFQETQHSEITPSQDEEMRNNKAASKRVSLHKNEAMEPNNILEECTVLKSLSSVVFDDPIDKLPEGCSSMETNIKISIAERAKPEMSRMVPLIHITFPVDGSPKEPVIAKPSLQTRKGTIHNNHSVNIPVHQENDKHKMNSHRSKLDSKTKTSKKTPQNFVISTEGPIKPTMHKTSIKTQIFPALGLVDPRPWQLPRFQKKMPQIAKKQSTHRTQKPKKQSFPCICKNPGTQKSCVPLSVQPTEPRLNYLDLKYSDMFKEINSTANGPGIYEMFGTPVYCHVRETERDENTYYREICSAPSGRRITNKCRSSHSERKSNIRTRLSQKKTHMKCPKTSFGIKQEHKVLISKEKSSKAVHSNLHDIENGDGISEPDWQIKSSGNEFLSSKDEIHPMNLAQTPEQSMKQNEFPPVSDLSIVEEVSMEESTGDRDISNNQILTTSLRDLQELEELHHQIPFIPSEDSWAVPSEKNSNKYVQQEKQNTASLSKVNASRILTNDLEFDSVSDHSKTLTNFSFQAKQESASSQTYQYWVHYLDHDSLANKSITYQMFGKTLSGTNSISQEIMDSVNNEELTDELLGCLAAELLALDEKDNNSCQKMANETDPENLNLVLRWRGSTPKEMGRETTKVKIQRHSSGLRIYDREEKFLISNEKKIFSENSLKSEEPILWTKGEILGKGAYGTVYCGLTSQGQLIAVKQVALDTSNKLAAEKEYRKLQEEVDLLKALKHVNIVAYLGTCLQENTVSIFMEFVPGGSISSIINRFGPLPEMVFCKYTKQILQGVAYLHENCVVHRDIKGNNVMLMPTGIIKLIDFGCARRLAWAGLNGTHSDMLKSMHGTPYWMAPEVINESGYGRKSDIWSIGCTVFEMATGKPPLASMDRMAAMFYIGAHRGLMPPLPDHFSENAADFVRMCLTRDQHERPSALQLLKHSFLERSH
Sequence of MATK (human) (P42679 whole entry, looked up): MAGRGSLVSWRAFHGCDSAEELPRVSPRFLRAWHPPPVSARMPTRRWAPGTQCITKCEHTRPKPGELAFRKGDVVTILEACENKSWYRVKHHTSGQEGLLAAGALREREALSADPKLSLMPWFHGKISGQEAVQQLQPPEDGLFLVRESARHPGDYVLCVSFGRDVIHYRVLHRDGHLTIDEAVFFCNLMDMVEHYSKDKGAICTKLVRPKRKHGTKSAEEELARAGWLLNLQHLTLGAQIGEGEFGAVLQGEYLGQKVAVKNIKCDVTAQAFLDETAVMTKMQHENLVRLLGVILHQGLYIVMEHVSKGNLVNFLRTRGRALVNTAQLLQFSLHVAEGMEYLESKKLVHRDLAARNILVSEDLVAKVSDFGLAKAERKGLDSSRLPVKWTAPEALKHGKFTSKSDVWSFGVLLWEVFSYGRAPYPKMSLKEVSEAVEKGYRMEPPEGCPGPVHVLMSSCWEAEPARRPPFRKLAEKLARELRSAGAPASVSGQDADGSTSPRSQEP

Compound | kinase still bound, per cent of control (YSK4 (human)) [%] | kinase still bound, per cent of control (HIPK3 (human)) [%] | kinase still bound, per cent of control (PIK3CG (human)) [%] | kinase still bound, per cent of control (TAOK2 (human)) [%] | kinase still bound, per cent of control (GRK1 (human)) [%] | kinase still bound, per cent of control (STK32A (human)) [%] | kinase still bound, per cent of control (LRRK2 (human)) [%] | kinase still bound, per cent of control (MATK (human)) [%] | kinase still bound, per cent of control (IRAK1 (human)) [%] | kinase still bound, per cent of control (PIK3C2G (human)) [%] | kinase still bound, per cent of control (STK38 (human)) [%] | kinase still bound, per cent of control [1] [%] | kinase still bound, per cent of control (CSNK1A1 (human)) [%] | kinase still bound, per cent of control (KIT (human)) [%] | kinase still bound, per cent of control [2] [%] | kinase still bound, per cent of control (EIF2AK1 (human)) [%] | kinase still bound, per cent of control (ROCK1 (human)) [%] | kinase still bound, per cent of control [3] [%] | kinase still bound, per cent of control (MAP2K7 (human)) [%] | kinase still bound, per cent of control (MAP3K13 (human)) [%] | further results
CCN1CCN(Cc2ccc(Nc3ncc4c(n3)N(C)c3ccccc3C(=O)N4C)cc2C(F)(F)F)CC1 | 80 | 76 | 0 | 0.1 | 78 | 81 | 15 | 94 | 25 | 17 | 95 | 62 | 16 | 57 | 0.1 | 100 | 94 | 79 | 100 | 53 | kinase still bound, per cent of control (NEK11 (human)): 100%; kinase still bound, per cent of control (PKN3 (M.tuberculosis)): 22%; kinase still bound, per cent of control (NEK3 (human)): 100%; kinase still bound, per cent of control (CDK4 CCND3 (human)): 100%; kinase still bound, per cent of control (GRK4 (human)): 56%; kinase still bound, per cent of control (NEK4 (human)): 80%; kinase still bound, per cent of control (MAP3K2 (human)): 0.55%; kinase still bound, per cent of control (STK39 (human)): 100%; kinase still bound, per cent of control (ICK (human)): 80%; kinase still bound, per cent of control (TRPM6 (human)): 100%; kinase still bound, per cent of control (ERBB3 (human)): 75%; kinase still bound, per cent of control (EGFR (human)): 73%; kinase still bound, per cent of control (CRK2 (P.falciparum)): 100%; kinase still bound, per cent of control (OXSR1 (human)): 59%; kinase still bound, per cent of control (DYRK2 (human)): 97%; kinase still bound, per cent of control (DYRK1A (human)): 51%; kinase still bound, per cent of control (MAK (human)): 100%; kinase still bound, per cent of control (HIPK4 (human)): 100%; kinase still bound, per cent of control (CDK4 CCND1 (human)): 65%; kinase still bound, per cent of control (MAST1 (human)): 100%
C=CC(=O)Nc1cccc(Nc2nc(N[C@H]3CC[C@H](N(C)C)CC3)nc3c2ncn3C(C)C)c1 | 15 | 26 | 100 | 66 | 47 | 89 | 61 | 40 | 1.8 | 100 | 19 | 1.2 | 0.65 | 52 | 70 | 100 | 16 | 90 | 100 | 79 | kinase still bound, per cent of control (NEK11 (human)): 54%; kinase still bound, per cent of control (PKN3 (M.tuberculosis)): 82%; kinase still bound, per cent of control (NEK3 (human)): 60%; kinase still bound, per cent of control (CDK4 CCND3 (human)): 23%; kinase still bound, per cent of control (GRK4 (human)): 43%; kinase still bound, per cent of control (NEK4 (human)): 100%; kinase still bound, per cent of control (MAP3K2 (human)): 0.2%; kinase still bound, per cent of control (STK39 (human)): 51%; kinase still bound, per cent of control (ICK (human)): 100%; kinase still bound, per cent of control (TRPM6 (human)): 66%; kinase still bound, per cent of control (ERBB3 (human)): 94%; kinase still bound, per cent of control (EGFR (human)): 100%; kinase still bound, per cent of control (CRK2 (P.falciparum)): 100%; kinase still bound, per cent of control (OXSR1 (human)): 33%; kinase still bound, per cent of control (DYRK2 (human)): 58%; kinase still bound, per cent of control (DYRK1A (human)): 20%; kinase still bound, per cent of control (MAK (human)): 100%; kinase still bound, per cent of control (HIPK4 (human)): 63%; kinase still bound, per cent of control (CDK4 CCND1 (human)): 40%; kinase still bound, per cent of control (MAST1 (human)): 83%
CN(C)C/C=C/C(=O)Nc1cccc(Nc2ncc3c(n2)N(C)c2ccccc2C(=O)N3C)c1 | 6.2 | 85 | 0 | 0 | 100 | 100 | 31 | 69 | 19 | 76 | 74 | 37 | 26 | 66 | 0.1 | 100 | 49 | 100 | 97 | 40 | kinase still bound, per cent of control (NEK11 (human)): 77%; kinase still bound, per cent of control (PKN3 (M.tuberculosis)): 42%; kinase still bound, per cent of control (NEK3 (human)): 58%; kinase still bound, per cent of control (CDK4 CCND3 (human)): 85%; kinase still bound, per cent of control (GRK4 (human)): 66%; kinase still bound, per cent of control (NEK4 (human)): 87%; kinase still bound, per cent of control (MAP3K2 (human)): 0.1%; kinase still bound, per cent of control (STK39 (human)): 100%; kinase still bound, per cent of control (ICK (human)): 70%; kinase still bound, per cent of control (TRPM6 (human)): 91%; kinase still bound, per cent of control (ERBB3 (human)): 89%; kinase still bound, per cent of control (EGFR (human)): 69%; kinase still bound, per cent of control (CRK2 (P.falciparum)): 100%; kinase still bound, per cent of control (OXSR1 (human)): 25%; kinase still bound, per cent of control (DYRK2 (human)): 47%; kinase still bound, per cent of control (DYRK1A (human)): 73%; kinase still bound, per cent of control (MAK (human)): 100%; kinase still bound, per cent of control (HIPK4 (human)): 76%; kinase still bound, per cent of control (CDK4 CCND1 (human)): 78%; kinase still bound, per cent of control (MAST1 (human)): 100%

From the kinase profiling compilation of Christmann-Franck et al. (2016)
